From US20150018311A1, “THERAPEUTIC BORON-CONTAINING COMPOUNDS” (priority 2012, published 2015)

What was measured:
Format in all cases: cell-based
[1] = system: Mycobacterium tuberculosis (H37Rv); experiment: Growth in liquid media in presence of test compound
[2] = system: Escherichia coli (ATCC 25922); experiment: as above
[3] = system: Pseudomonas aeruginosa (ATCC 27853); experiment: as above
[4] = system: Staphylococcus aureus (ATCC 25923); experiment: as above
E. faecalis = experiment: as above
Experimental: The strains were grown at 37° C. and after suitable cell concentrations had been reached, 100 μL of each cell suspension was added to a tube with growth media and test compound. Cultivation of the bacteria was then carried out in the presence of each test compound at 37° C. and the tubes examined for visible growth. The compounds were tested at concentrations of either 500 mg/l, 50 mg/l or 5 mg/l. This assay was repeated twice.
Some compounds were only tested against some test organisms. It will be appreciated that the charge of these molecules will depend on the environment, some of the Examples are shown with a suitable counter ion, some without.

[5] = system: Candida albicans (ATCC 90028); experiment: as above
[6] = system: Streptococcus pyogenes (ATCC 19615); experiment: as above
[7] = system: Candida albicans ATCC90028 (wild type); experiment: Filter paper disc antifungal assay on agar plates; settings: 5 mm disc, 37° C. 24 hours
Experimental: (§1) Compound 22 (the chloride salt) of table 1 was dissolved and the solution applied to a filter paper disc of diameter 5 mm. The filter paper discs were placed on plates containing the following strains of Candida albicans:
ATCC90028 (“wild type”, i.e. not resistant to nystatin or fluconazole)
(§2) The compound was applied at concentrations of 0.5, 1, 5, 10, 25 and 50 μg/ml. Nystatin and fluconazole at the same concentrations were applied in the same manner. […] All strains were tested at least three times.
(§3) Clearly, the higher the number, the greater the antifungal activity.

[8] = system: Candida albicans ATCC38247 (resistant to fluconazole); experiment: Filter paper disc antifungal assay on agar plates; settings: 5 mm disc, 37° C. 24 hours
Experimental: as §1
ATCC38247 (resistant to fluconazole)
as §2, §3

[9] = system: Candida albicans MYA576 (resistant to nystatin); experiment: Filter paper disc antifungal assay on agar plates; settings: 5 mm disc, 37° C. 24 hours
Experimental: as §1
MYA576 (resistant to nystatin).
as §2, §3

SMILES | Growth in the presence of test compound, M. tuberculosis ([1]; 5 mg/L) | Growth in the presence of test compound, M. tuberculosis ([1]; 50 mg/L) | Growth in the presence of test compound, M. tuberculosis ([1]; 500 mg/L) | Growth in the presence of test compound, E. coli ([2]; 5 mg/L) | Growth in the presence of test compound, E. coli ([2]; 50 mg/L) | Growth in the presence of test compound, E. coli ([2]; 500 mg/L) | Growth in the presence of test compound, P. aeruginosa ([3]; 5 mg/L) | Growth in the presence of test compound, P. aeruginosa ([3]; 50 mg/L) | Growth in the presence of test compound, P. aeruginosa ([3]; 500 mg/L) | Growth in the presence of test compound, S. aureus ([4]; 5 mg/L) | Growth in the presence of test compound, S. aureus ([4]; 50 mg/L) | Growth in the presence of test compound, S. aureus ([4]; 500 mg/L) | Growth in the presence of test compound, E. faecalis (E. faecalis; 5 mg/L) | Growth in the presence of test compound, E. faecalis (E. faecalis; 50 mg/L) | Growth in the presence of test compound, E. faecalis (E. faecalis; 500 mg/L) | Growth in the presence of test compound, C. albicans ([5]; 5 mg/L) | Growth in the presence of test compound, C. albicans ([5]; 50 mg/L) | Growth in the presence of test compound, C. albicans ([5]; 500 mg/L) | Growth in the presence of test compound, S. pyogenes ([6]; 5 mg/L) | Growth in the presence of test compound, S. pyogenes ([6]; 50 mg/L) | also measured
CC1(C)C2CC3OB(CC(Cc4ccccc4)NC(=O)C(N)CCCCN)OC3(C)C1C2 (stereo not drawn) [Compound 1] | − | − | − | + | + | − | + | + | ± | + | + | − | + | + | − |  |  |  |  |  | 
NCCCCC(N)C(=O)NC(CB(O)O)Cc1ccccc1 (stereo not drawn) [Compound 34] | + | − | − | + | + | − | + | + | − | + | + | − | + | + | − |  |  |  |  |  | 
C[C@H](N)C(=O)NC[C@@H](Cc1ccc(OC(F)(F)F)cc1)B1OC2CC3CC(C3(C)C)[C@@]2(C)O1.Cl (stereo partly drawn) [Compound 56] | + | − | − | + | + | + | + | + | + | + | ± | + |  |  |  | + | ± | ± | + | − | Growth in the presence of test compound, S. pyogenes ([6]; 500 mg/L): +
Cl.N[C@@H](Cc1ccccc1)C(=O)NC[C@@H](Cc1ccc(OC(F)(F)F)cc1)B(O)O [Compound 57] | + | − | − | + | + | ± | + | + | − | + | + | + |  |  |  | + | + | − | + | + | Growth in the presence of test compound, S. pyogenes ([6]; 500 mg/L): −
OC(Cn1cncn1)(Cn1cncn1)c1ccc(F)cc1F [Fluconazole, reference compound] |  |  |  |  |  |  |  |  |  |  |  |  |  |  |  |  |  |  |  |  | diameter of the area which did not show any Candida growth ([7]; ATCC90028, 0.5 μg/ml): 7.33 millimeters; diameter of the area which did not show any Candida growth ([7]; ATCC90028, 1 μg/ml): 13.33 millimeters; diameter of the area which did not show any Candida growth ([7]; ATCC90028, 5 μg/ml): 21.33 millimeters; diameter of the area which did not show any Candida growth ([7]; ATCC90028, 10 μg/ml): 25.66 millimeters; diameter of the area which did not show any Candida growth ([7]; ATCC90028, 25 μg/ml): 30 millimeters; diameter of the area which did not show any Candida growth ([7]; ATCC90028, 50 μg/ml): 31.33 millimeters; diameter of the area which did not show any Candida growth ([8]; ATCC38247, 0.5 μg/ml): 5 millimeters; diameter of the area which did not show any Candida growth ([8]; ATCC38247, 1 μg/ml): 5 millimeters; diameter of the area which did not show any Candida growth ([8]; ATCC38247, 5 μg/ml): 5 millimeters; diameter of the area which did not show any Candida growth ([8]; ATCC38247, 10 μg/ml): 5 millimeters; diameter of the area which did not show any Candida growth ([8]; ATCC38247, 25 μg/ml): 5 millimeters; diameter of the area which did not show any Candida growth ([8]; ATCC38247, 50 μg/ml): 5 millimeters
C[C@@H]1[C@H](O)[C@@H](C)/C=C/C=C/CC/C=C/C=C/C=C/C=C/C(O[C@H]2O[C@H](C)[C@@H](O)[C@H](N)[C@@H]2O)CC2O[C@](O)(CC(O)C(O)CCC(O)CC(O)CC(O)CC(=O)O[C@H]1C)CC(O)C2C(=O)O (stereo partly drawn) [Nystatin, reference compound] |  |  |  |  |  |  |  |  |  |  |  |  |  |  |  |  |  |  |  |  | diameter of the area which did not show any Candida growth ([7]; ATCC90028, 0.5 μg/ml): 6.25 millimeters; diameter of the area which did not show any Candida growth ([7]; ATCC90028, 1 μg/ml): 7.25 millimeters; diameter of the area which did not show any Candida growth ([7]; ATCC90028, 5 μg/ml): 9.25 millimeters; diameter of the area which did not show any Candida growth ([7]; ATCC90028, 10 μg/ml): 14.75 millimeters; diameter of the area which did not show any Candida growth ([7]; ATCC90028, 25 μg/ml): 19.25 millimeters; diameter of the area which did not show any Candida growth ([7]; ATCC90028, 50 μg/ml): 20.25 millimeters; diameter of the area which did not show any Candida growth ([9]; MYA576, 0.5 μg/ml): 5 millimeters; diameter of the area which did not show any Candida growth ([9]; MYA576, 1 μg/ml): 5 millimeters; diameter of the area which did not show any Candida growth ([9]; MYA576, 5 μg/ml): 5 millimeters; diameter of the area which did not show any Candida growth ([9]; MYA576, 10 μg/ml): 6.17 millimeters; diameter of the area which did not show any Candida growth ([9]; MYA576, 25 μg/ml): 7.33 millimeters; diameter of the area which did not show any Candida growth ([9]; MYA576, 50 μg/ml): 9 millimeters
